Experimental findings from patent US8128914B2, “Topical compositions containing CIS-6-nonenol and its derivatives and methods for treating skin” (Avon Products, Inc, priority 2008, dated 2012) are described below.

The test system of the test is Metallothionein 2A (MT2A) mRNA. Put plainly: Stimulation of Metallothioneins: MT2A mRNA in normal human dermal fibroblasts (QuantiGene multiplex branched DNA assay). The test is classed as cell-based. Conditions: 24 hours, vs ethanol vehicle control, p<0.05. Here is the method: Normal human dermal fibroblasts were cultured in 96 well tissue culture treated plates, containing appropriate culture medium. Stock solution of cis-6 nonenol was made in ethanol. Cells were treated with test material or ethanol vehicle control diluted in growth medium for 24 hours in a humidified 37° C. incubator with 10% CO2. After incubation, growth medium from each plate was removed and 100 μl of lysis buffer was added to the wells and placed in 37° C. incubator with 10% CO2 for 30 minutes. At the end of incubation, the cells were collected in freezer plates and placed in −80° C. freezer, until analysis. Changes in mRNA for Metallothionein 2A (MT2A) after treatment were analysed using Panomics' QuantiGene® multiplex assay that employs a branched DNA technology. Percent increase in mRNA for MT2A was calculated by comparing the test results to that of the vehicle control. […] All results reported are statistically significant at p<0.05.

Molecules are shown by their SMILES.

Regarding `CC/C=C\CCCCCO` [Cis-6-nonenol, cis-6-nonenol], the “stimulation in mRNA levels for Metallothionein 2A” value reads like this: (0.001% cis-6-nonenol) 97%; (0.01% cis-6-nonenol) 96%.
